Literature values in patent publication US5277910A, “Process for the preparation of a pharmaceutical composition selectively lowering the blood-lipid level” (priority 1991, dated 1994).

Legend:
monkeys = monkeys fed with alfalfa; in words
[1] = in words

| SMILES | induced syndrome (monkeys) | uterotrophic activity [1] |
| --- | --- | --- |
| N=C(N)NOCCC(N)C(=O)O (centres unmarked) [Canavanine, 2-amino-4-(guanidinooxy)-butyric acid] | induces a syndrome resembling lupus erithemathosus | – |
| O=c1oc2cc(O)ccc2c2oc3cc(O)ccc3c12 [coumestrol] | – | high uterotrophic activity |
